Measured values reported in patent publication US6441023B1 (American Home Products Corporation, priority 1997, dated 2002).

Key:
MMP 13 = MMP 13 (Homo sapiens, UniProt P45452); assay: MMP 13 inhibition (HTS); type: biochemical
TACE = target: T1, TACE (Homo sapiens, UniProt P78536); assay: Procedure for measuring TACE inhibition; type: biochemical
T1 construct: purchased Immunex
T1 sequence (P78536 215-824): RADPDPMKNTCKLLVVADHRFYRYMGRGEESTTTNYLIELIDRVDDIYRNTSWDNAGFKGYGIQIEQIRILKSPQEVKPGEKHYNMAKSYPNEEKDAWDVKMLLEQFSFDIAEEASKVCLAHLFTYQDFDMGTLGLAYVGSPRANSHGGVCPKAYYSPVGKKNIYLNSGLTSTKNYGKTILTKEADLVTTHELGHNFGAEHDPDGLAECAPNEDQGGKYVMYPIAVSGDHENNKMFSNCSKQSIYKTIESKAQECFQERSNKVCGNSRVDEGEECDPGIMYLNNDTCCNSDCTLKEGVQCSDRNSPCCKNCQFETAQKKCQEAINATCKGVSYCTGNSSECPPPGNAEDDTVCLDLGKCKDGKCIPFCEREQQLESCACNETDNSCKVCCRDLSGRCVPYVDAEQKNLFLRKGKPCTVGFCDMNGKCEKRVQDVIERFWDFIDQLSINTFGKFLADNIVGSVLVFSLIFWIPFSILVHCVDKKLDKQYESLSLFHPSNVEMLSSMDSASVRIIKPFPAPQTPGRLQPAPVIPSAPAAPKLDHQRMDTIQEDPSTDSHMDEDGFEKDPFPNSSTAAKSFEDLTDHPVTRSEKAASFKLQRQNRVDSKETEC

| Structure (SMILES) | MMP 13 % inhibition at 36 nM (HTS) (MMP 13) | other results |
| --- | --- | --- |
| CC(C)C(SCCc1ccccc1)C(=O)NO (centres unmarked) [Example 117, N-Hydroxy-3-methyl-2-phenethylsulfanyl-butyramide] | – | inhibition at 0.2 µM (MMP 13; read-out: MMP 13 % inhibition at 0.2 μM (HTS), 0.2 μM): 7%; inhibition at 1 µM (TACE; read-out: TACE % inhibition at 1 µM): 8.1% |
| CCCCCCC(C(=O)NO)S(=O)(=O)c1cccc(OC)c1 (centres unmarked) [Example 164, 2-(3-Methoxybenzenesulfonyl)tanoic acid hydroxyamide] | – | MMP 13 % inhibition at 0.2 μM (HTS) (MMP 13; 0.2 μM): 74% |
| CCCCCCC(SCCc1ccccn1)C(=O)NO (centres unmarked) [Example 173, 2-(2-Pyridin-2-yl-ethylsulfanyl)-octanoic acid hydroxyaride] | 18% | – |
| CCCCCCC(SC1N=NN(c2ccccc2)N1)C(=O)NO (centres unmarked) [Example 174, 2-(2-Phenyl-5H-tetrazol-5-ylsulfanyl)-octanoic acid hydroxyanide] | 10% | TACE % inhibition at 1 µM (TACE; 1 µM): 27.7% |
| CCCCCCC(C(=O)NO)[S+]([O-])CC(=O)Nc1ccc2ccccc2c1 (centres unmarked) [Example 191, 2-(Naphthalen-2-ylcarbamoylmethanesulfimyl)-cmtanoic acid hydroxyamide] | −45% | – |
| CCCCCCC(C(=O)NO)S(=O)(=O)c1nccs1 (centres unmarked) [Example 195, 2-(Thiazol-2-ylsulfonyl)-octanoic acid hydroxyamde] | −9% | – |
| CCCCCCC(C(=O)NO)S(=O)(=O)c1cccc2cccnc12 (centres unmarked) [Example 196, 2-(Quinoline-8-sulfonyl)-octanoic acid hydroxyamde] | −18% | – |
| CCCCCCC(C(=O)NO)S(=O)(=O)CC1NC(=O)NC1=O (centres unmarked) [Example 198, 2-(2,5-Dioxo-inidazolidinylmethylsulfonyl)-octanoic acid hydroxyamide] | −39% | – |
| CCCCCCC(C(=O)NO)S(=O)(=O)c1ccc(OS(=O)(=O)c2ccccc2[N+](=O)[O-])cc1 (centres unmarked) [Example 238, 2-Nitro-benzenesulfonic acid 4-(1-hydroxycarbamoyl-heptylsulfonyl)-hydroxyamide] | 22% | – |
